Results reported in patent US9776972B2, “Pyrazole derivatives as arginine methyltransferase inhibitors and uses thereof” (priority 2013, dated 2017).
Where a name gives a salt, the structure may show the parent alone. Read-outs that look alike come from different tables or passages of the source.

How the values were obtained:
human PRMT6 = target: T1, human PRMT6 (Homo sapiens, UniProt Q96LA8); test: PRMT6 Biochemical Assay (3H-SAM Flashplate, peptide substrate)
T1 construct: Flag-PRMT6-His; made in house; host or cells: HEK 293F cells (BacMam baculovirus)
T1 sequence (Q96LA8 with tags, fused parts or gaps): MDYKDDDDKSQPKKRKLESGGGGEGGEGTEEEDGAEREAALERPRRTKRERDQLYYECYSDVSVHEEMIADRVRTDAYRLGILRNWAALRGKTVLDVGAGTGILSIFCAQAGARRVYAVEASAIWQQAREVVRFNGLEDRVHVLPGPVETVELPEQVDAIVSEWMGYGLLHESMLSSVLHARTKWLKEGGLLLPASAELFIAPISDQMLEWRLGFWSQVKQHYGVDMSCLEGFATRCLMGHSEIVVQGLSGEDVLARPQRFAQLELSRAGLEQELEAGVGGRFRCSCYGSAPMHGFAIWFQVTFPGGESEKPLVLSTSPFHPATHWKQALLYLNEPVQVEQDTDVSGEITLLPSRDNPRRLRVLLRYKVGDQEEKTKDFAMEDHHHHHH
In short: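 Methylation of a biotin-tagged H4 (36-50) peptide by ³H-SAM was quantified by streptavidin Flashplate capture and scintillation counts (dpm/cpm). Before SAM/peptide addition, Flag-PRMT6-His was preincubated with compound for 30 min at room temperature in Bicine buffer, pH 7.6.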

[1] = system: mono-methyl arginine in RKO cells; test: RKO Methylation Assay, In Cell Western (ICW) for mono-methyl arginine and DNA content; assay type: cell-based; settings: Homo sapiens, RKO, 72 h
In short: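 After fixation, mono-methyl arginine and DNA (DRAQ5) were measured by infrared In-Cell Western imaging at 700/800 nm in RKO cells exposed to compounds for 72 hours. Percent activation used DMSO wells as minimum and 20 μM reference compound as maximum; EC30 curves fitted on triplicate wells.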

[2] = Biochemical IC50 PRMT6, single experiment or average of multiple experiments
[3] = read-out: EC30 (In Cell Western data)
[4] = read-out: EC30 (In Cell Western data, Numerical, μM)
[5] = RKO cells, 72 hours, mono-methyl arginine, percent activation, class symbols, read-out: EC30 (In Cell Western data)
[6] = RKO cells, 72 hours, mono-methyl arginine, percent activation, single experiment or average of multiple experiments, read-out: EC30 (In Cell Western data, Numerical)

| SMILES | IC50 (human PRMT6; Biochemical IC50 PRMT6) [nM] | IC50 (human PRMT6; [2]) [nM] | EC30 [1, 3] [µM] | EC30 [1, 4] [µM] | EC30 [1, 5] [µM] | EC30 [1, 6] [µM] | IC50 (human PRMT6; single experiment or average of multiple experiments, read-out: Biochemical IC50 PRMT6) [nM] |
| --- | --- | --- | --- | --- | --- | --- | --- |
| CNCCN(C)Cc1cnn(C)c1-c1ccc(OC(C)C)cc1 [Compound 244, hydrochloride] | < 100 | 45.1 | < 3 | 0.142 | – | – | – |
| CNCCN(C)Cc1c[nH]nc1-c1ccc(OC2COC2)cc1 [Compound 283] | < 100 | 25.6 | – | – | < 3 | 0.379 | – |
| CNCCN(C)Cc1c[nH]nc1-c1ccc(OCC2CCOCC2)cc1 [Compound 284] | < 100 | 40.5 | – | – | < 3 | 0.856 | – |
| CNCCN(C)Cc1c[nH]nc1-c1ccc(OCC2CCOC2)cc1 (stereo not drawn) [Compound 285] | < 100 | 33.2 | – | – | < 3 | 0.62 | – |
| CNCCN(C)Cc1c[nH]nc1-c1ccc(OC(CO)C(C)C)cc1 (stereo not drawn) [Compound 286] | < 100 | – | – | – | < 3 | 0.812 | 32.1 |
| CNCCN(C)Cc1c[nH]nc1-c1ccc(OCC2CC2)cc1 [Compound 288] | < 100 | 14.3 | – | – | < 3 | 0.076 | – |
| CNCCN(C)Cc1c[nH]nc1-c1ccc(OCCOC)cc1 [Compound 289] | < 100 | 36.5 | – | – | < 3 | 0.419 | – |
| CCC(CC)Oc1ccc(-c2n[nH]cc2CN(C)CCNC)cc1 [Compound 290] | < 100 | 11.5 | – | – | < 3 | 0.021 | – |
| CNCCN(C)Cc1c[nH]nc1-c1ccc(OC2CCOCC2)c(F)c1 [Compound 291] | < 100 | 27.7 | < 3 | 0.154 | – | – | – |
| CNCCN(C)Cc1c[nH]nc1-c1ccc(OC2CCOCC2)c(Cl)c1 [Compound 292] | < 100 | 83.2 | – | – | < 3 | 0.098 | – |
| CNCCN(C)Cc1c[nH]nc1-c1ccc(OC2CC2)cc1 [Compound 293] | < 100 | 28.8 | – | – | < 3 | 0.336 | – |
| CNCCN(C)Cc1c[nH]nc1-c1ccc(NC(C)C)cc1 [Compound 295] | < 100 | 64.9 | – | – | < 3 | 0.116 | – |
| CNCCN(C)Cc1c[nH]nc1-c1ccc(NCC(C)C)cc1 [Compound 296] | < 100 | 33 | – | – | < 3 | 0.478 | – |
| CNCCN(C)Cc1c[nH]nc1-c1ccc(Oc2ccccc2)c(F)c1 [Compound 297] | < 100 | 12.1 | – | – | < 3 | 0.08 | – |
| CNCCN(C)Cc1c[nH]nc1-c1ccc(OCC2CC2)c(F)c1 [Compound 298] | < 100 | 26.9 | – | – | < 3 | 0.104 | – |
| CNCCN(C)Cc1c[nH]nc1-c1ccc(OC2CCC(O)CC2)cc1 (stereo not drawn) [Compound 299] | < 100 | 15.9 | – | – | < 3 | 0.877 | – |
| CNCCN(C)Cc1c[nH]nc1-c1ccc(N(C)C(C)C)cc1 [Compound 300] | 101 to 1000 | 177 | – | – | < 3 | 0.611 | – |

| SMILES | IC50 (human PRMT6; Biochemical IC50 PRMT6) [nM] | IC50 (human PRMT6; [2]) [nM] | EC30 [1, 3] [µM] | EC30 [1, 4] [µM] | EC30 [1, 5] [µM] | EC30 [1, 6] [µM] | IC50 (human PRMT6; single experiment or average of multiple experiments, read-out: Biochemical IC50 PRMT6) [nM] |
| --- | --- | --- | --- | --- | --- | --- | --- |
| CNCCN(C)Cc1c[nH]nc1-c1ccc(OC2CC2)c(F)c1 [Compound 301] | < 100 | 25.3 | – | – | < 3 | 0.128 | – |
| CNCCN(C)Cc1c[nH]nc1-c1ccc(Oc2ncccn2)cc1 [Compound 302] | < 100 | 49.7 | – | – | < 3 | 0.976 | – |
| CNCCN(C)Cc1c[nH]nc1-c1ccc(Oc2cncnc2)cc1 [Compound 303] | < 100 | 24 | – | – | < 3 | 0.712 | – |
| CNCCN(C)Cc1c[nH]nc1-c1ccc(OC2CCC2)cc1 [Compound 304] | < 100 | 24.1 | – | – | < 3 | 0.155 | – |
| CNCCN(C)Cc1c[nH]nc1-c1ccc(OC2CCC2)c(F)c1 [Compound 305] | < 100 | 27.6 | – | – | < 3 | 0.193 | – |
| CNCCN(C)Cc1c[nH]nc1-c1ccc(OCC(C)C)cc1 [Compound 306] | < 100 | 23.3 | – | – | < 3 | 0.1 | – |
| CNCCN(C)Cc1c[nH]nc1-c1ccc(OCC2CCC2)cc1 [Compound 307] | < 100 | 19.7 | – | – | < 3 | 0.109 | – |
| CC[C@@H](C)Oc1ccc(-c2n[nH]cc2CN(C)CCNC)cc1 [Compound 308] | < 100 | 13.1 | – | – | < 3 | 0.065 | – |
| CC[C@H](C)Oc1ccc(-c2n[nH]cc2CN(C)CCNC)cc1 [Compound 309] | < 100 | 15.2 | – | – | < 3 | 0.024 | – |
| CCC(COC)Oc1ccc(-c2n[nH]cc2CN(C)CCNC)cc1 (stereo not drawn) [Compound 310] | < 100 | 32.4 | – | – | < 3 | 0.032 | – |
| CNCCN(C)Cc1c[nH]nc1-c1ccc(OC(COC)C(C)C)cc1 (stereo not drawn) [Compound 311] | < 100 | 50.3 | – | – | < 3 | 0.227 | – |
| CNCCN(C)Cc1c[nH]nc1-c1ccc(Oc2ccncn2)cc1 [Compound 312] | < 100 | 19.5 | – | – | < 3 | 0.824 | – |
| CNCCN(C)Cc1c[nH]nc1-c1ccc(C(C)(C)COC)cc1 [Compound 313] | 101 to 1000 | 113 | – | – | < 3 | 0.894 | – |
| CNCCN(C)Cc1c[nH]nc1-c1ccc(OC(COC)CC(C)C)cc1 (stereo not drawn) [Compound 314] | < 100 | 38.6 | – | – | < 3 | 0.51 | – |
| CNCCN(C)Cc1c[nH]nc1-c1ccc(OC2CC(OC)C2)cc1 (stereo not drawn) [Compound 315] | < 100 | 10.6 | – | – | < 3 | 0.843 | – |
| CNCCN(C)Cc1c[nH]nc1-c1ccc(OC(COC)COC)cc1 [Compound 316] | < 100 | 96.7 | – | – | < 3 | 0.063 | – |
